Laboratory results: the NIST ThermoML archive (doi:10.1021/je060485s)

Assay: xn = mol fraction of the nth substance listed
Settings: for surface tension liquid-gas: Pendant drop shape; for mass density: 101 kPa, Liquid

CCCOC(C)=O [propyl ethanoate] + Cc1ccc(C)cc1
Settings | mass density [kg/m3] | surface tension liquid-gas [mN/m]
298.15 K, x1 = 0.1 | 859.6 | 27.56
298.15 K, x1 = 0.1995 | 862.22 | 27.04
298.15 K, x1 = 0.2981 | 864.8 | 26.54
298.15 K, x1 = 0.3986 | 867.38 | 26.05
298.15 K, x1 = 0.4993 | 869.95 | 25.61
298.15 K, x1 = 0.6002 | 872.51 | 25.23
298.15 K, x1 = 0.6991 | 875 | 24.89
298.15 K, x1 = 0.7993 | 877.52 | 24.56
298.15 K, x1 = 0.8999 | 880.05 | 24.23
298.15 K, x1 = 1 | 882.54 | 23.91
303.15 K, x1 = 0.0994 | 855.13 | 26.98
303.15 K, x1 = 0.1992 | 857.64 | 26.48
303.15 K, x1 = 0.2992 | 860.13 | 25.99
303.15 K, x1 = 0.3991 | 862.58 | 25.52
303.15 K, x1 = 0.5009 | 865.05 | 25.1
303.15 K, x1 = 0.5998 | 867.44 | 24.76
303.15 K, x1 = 0.6999 | 869.84 | 24.43
303.15 K, x1 = 0.8009 | 872.26 | 24.1
303.15 K, x1 = 0.8997 | 874.63 | 23.78
303.15 K, x1 = 1 | 876.99 | 23.46
308.15 K, x1 = 0.1001 | 850.7 | 26.61
308.15 K, x1 = 0.1999 | 853.09 | 26.09
308.15 K, x1 = 0.2992 | 855.43 | 25.57
308.15 K, x1 = 0.4001 | 857.77 | 25.06
308.15 K, x1 = 0.4996 | 860.06 | 24.62
308.15 K, x1 = 0.6 | 862.35 | 24.23
308.15 K, x1 = 0.6996 | 864.61 | 23.87
308.15 K, x1 = 0.8003 | 866.88 | 23.51
308.15 K, x1 = 0.9002 | 869.14 | 23.15
308.15 K, x1 = 1 | 871.35 | 22.79

Cc1ccccc1C [1,2-dimethylbenzene] + CCCOC(C)=O
x2 = 0
Settings | mass density [kg/m3] | surface tension liquid-gas [mN/m]
298.15 K | 875.05 | 29.89
303.15 K | 870.83 | 29.24
308.15 K | 866.62 | 28.57

CCCOC(C)=O [propyl ethanoate] + Cc1ccccc1C
Settings | mass density [kg/m3] | surface tension liquid-gas [mN/m]
298.15 K, x1 = 0.0998 | 876.04 | 28.94
298.15 K, x1 = 0.1995 | 876.96 | 28.14
298.15 K, x1 = 0.2996 | 877.83 | 27.47
298.15 K, x1 = 0.4002 | 878.67 | 26.85
298.15 K, x1 = 0.5001 | 879.45 | 26.27
298.15 K, x1 = 0.6004 | 880.18 | 25.71
298.15 K, x1 = 0.7002 | 880.85 | 25.18
298.15 K, x1 = 0.7999 | 881.46 | 24.69
298.15 K, x1 = 0.9 | 882.03 | 24.25
298.15 K, x1 = 1 | 882.54 | 23.91
303.15 K, x1 = 0.0999 | – | 28.41
303.15 K, x1 = 0.1 | 871.68 | –
303.15 K, x1 = 0.1997 | 872.48 | 27.6
303.15 K, x1 = 0.2992 | 873.22 | 26.92
303.15 K, x1 = 0.3998 | 873.93 | 26.3
303.15 K, x1 = 0.4993 | 874.57 | 25.74
303.15 K, x1 = 0.6002 | 875.17 | 25.2
303.15 K, x1 = 0.6994 | 875.7 | 24.7
303.15 K, x1 = 0.8002 | 876.19 | 24.24
303.15 K, x1 = 0.902 | 876.63 | 23.81
303.15 K, x1 = 1 | 876.99 | 23.46
308.15 K, x1 = 0.0999 | 867.33 | 27.8
308.15 K, x1 = 0.1999 | 867.99 | 27.05
308.15 K, x1 = 0.3001 | 868.59 | 26.35
308.15 K, x1 = 0.3989 | 869.15 | 25.73
308.15 K, x1 = 0.5002 | 869.66 | 25.14
308.15 K, x1 = 0.6008 | 870.11 | 24.6
308.15 K, x1 = 0.6998 | 870.5 | 24.1
308.15 K, x1 = 0.8007 | 870.84 | 23.63
308.15 K, x1 = 0.9 | 871.12 | 23.2
308.15 K, x1 = 1 | 871.35 | 22.79
